Measurements as given in publication PMC8235719, “New RAD51 Inhibitors to Target Homologous Recombination in Human Cells” (Genes, 2021).

Tests used:
MDA-MB-231 cells = experiment: EdU cell proliferation assay, MDA-MB-231; format: cell-based, human; details: 24 h
Procedure: (§1) Exponentially growing MDA-MB-231 and MCF 10A cells were seeded into 6-well plates at a density of 1.5 × 10^5 cells/well in the presence of indicated concentrations of B02-iso or 0.1% DMSO (for control cells). After 24 h of incubation, cells were labeled with 10 µM Edu (Invitrogen; Waltham, […], USA) for 1 h or left unlabeled in the control. Cells were harvested and centrifuged at 500× g, 4 °C for 5 min, and cell pellets were washed with PBS supplemented with 1% BSA, spun down, and fixed with 4% methanol-free formaldehyde (Pierce) in PBS for 15 min. Cells were washed with PBS containing 1% BSA, centrifuged 500× g for 5 min. Cell pellets were resuspended in PBS containing 0.1% Triton X-100 and incubated for 15 min for permeabilization. Cells were spun down, resuspended in freshly prepared Edu click labeling solution (1 mM CuSO4, 1.25 µM Alexa Fluor 488 Azide (Invitrogen; Waltham, […], USA), 50 mM ascorbic acid in PBS) and incubated for 30 min in the dark. Cells were washed twice with PBS containing 0.1% Triton X-100, resuspended in the same buffer, and analyzed for Edu incorporation by flow cytometry using the Guava easyCyte system (Millipore; Burlington, VT, USA) with the InCyte software (Millipore; Burlington, VT, USA).

MCF 10A cells = experiment: EdU cell proliferation assay, MCF 10A; format: cell-based, human; details: 24 h
Procedure: as §1

**Q.** For `O=c1nc(/C=C/c2cccnc2)n(Cc2ccccc2)c2ccccc12` [B02-iso], which “Fraction of DNA-replicating cells (EdU)” value (MDA-MB-231 cells; MDA-MB-231, 4 µM) is on record?
**A.** remained unchanged

**Q.** And the “Reduction of fraction of DNA-replicating cells (EdU)” value (MDA-MB-231 cells; MDA-MB-231, 8 µM)?
**A.** approximately 20%

**Q.** And the “Fraction of DNA-replicating cells (EdU)” value (MCF 10A cells; 4 µM)?
**A.** dropped approximately two-fold

**Q.** And the “Fraction of DNA-replicating cells (EdU)” value (MCF 10A cells; 8 µM)?
**A.** abolished almost entirely
